Laboratory results reported in a melting point compilation (Tetko et al.; mined from patent text by program, amines drawn as free bases though some values may be those of a salt).

| melting point [°C] | Compound |
| --- | --- |
| 216 | Cc1cc(N)nc(CCc2nc3cc(Br)cnc3[nH]2)c1 |
| 151 | O=C(NCCO)c1cc(C(=O)NCCO)cc([N+](=O)[O-])c1 |
| 248 | Cc1[nH]c2ccc(Br)cc2c1-c1ccncc1 |
| 182 | CN(C(=O)N1CCCC1)c1cccc2cc(-c3nccs3)[nH]c12 |
| 180 | CCCOc1ccccc1-c1cc(C)c(C#N)c(=O)[nH]1 |
| 134 to 135 | COc1cc([N+](=O)[O-])c(Br)cc1OCc1ccccc1 |
| 127 to 129 | CCNc1nc(Nc2ccccc2C)c2ccccc2n1 |
| 49 to 52 | CCOC(=O)C=Cc1ccc(OC)nc1 |
| 230 | CCOc1cc(C(=O)O)cc(N)c1C(=O)c1ccccc1 |
| 104 to 106 | COc1ccccc1NC(=O)c1ccc(CO)cc1 |
| 163 to 164 | Cc1nccn1-c1nc(-c2ccc(Cl)cc2)c(CCC#N)o1 |
| 108 to 111 | CC(C(=O)N(C)C)n1cc(I)c(-c2ccccc2)n1 (stereo not given) |
| 276 to 277 | COc1ccccc1Cc1n[nH]c2c1c(=O)n(-c1ccccc1)c1ncccc21 |
| 224 | COC(=O)c1cc(C(=O)O)ccc1N |
| 127 | CCN(CC)C(=O)c1nc(-c2ccccc2)nc2ccccc12 |
| 29 to 31 | Cc1ncccc1[N+](=O)[O-] |
| 46 to 48 | O=[N+]([O-])c1ccc(OC(F)(F)c2ccccc2)cc1 |
| 212 to 214 | CCOC(=O)C1=C(C)NC(O)(c2cccc(Cl)c2)C(C(=O)OCC)C1c1cccc([N+](=O)[O-])c1 (stereo not given) |
| 130 to 133 | CC1Cc2ccc(Br)cc2C(c2ccc([N+](=O)[O-])cc2)O1 (stereo not given) |
| 150 | OC1CSC(Oc2cccc(-c3ncccc3F)c2)C(O)C1O (stereo not given) |

| melting point [°C] | Compound |
| --- | --- |
| 112 to 114 | COc1ccc(S(=O)(=O)n2ccc3ccnc(-c4ccc(N(C)C)cc4)c32)cc1 |
| 187 to 189 | CN(C)c1ccc(NS(=O)(=O)c2cccc(Br)c2)cc1 |
| 143 to 144 | Cc1oc(-c2ccco2)nc1COc1ccc(CO)cc1Cl |
| 128 to 130 | Nc1ccc(-c2ncnn2-c2ccc(F)cc2)cc1 |
| 134 to 136 | COc1c(Br)cc(C2CC=CCC2[N+](=O)[O-])c(OC)c1OC (stereo not given) |
| 164 to 166 | CNc1nc(-c2cccc3ccccc23)co1 |
| 105 to 107 | COC(=O)c1c(S(N)(=O)=O)ccn1C |
| 137 to 138 | O=C(NCc1ccc([N+](=O)[O-])cc1)N(c1ccccc1)c1ccccc1 |
| 108 | COc1ccc(N=C(Cl)c2cccc([N+](=O)[O-])c2)cc1 |
| 59 | CCCCOc1cc2c(cc1C)C(=O)CC2(C)C |
| 92 | C#CCS(=O)c1ncc(Cl)cn1 (stereo not given) |
| 215 to 221 | CS(=O)(=O)c1ncc2cc(-c3ccccc3Cl)c(O)nc2n1 |
| 94 to 95 | CS(=O)(=O)N(CCc1ccccc1)Cc1cccnc1 |
| 113 to 115 | C#CCn1c(-c2ccccc2)nc(C=C)c(CC)c1=O |
| 90 | CCOC(=O)c1nccn1C1Cc2ccc(Cl)c(Cl)c2C1=O (stereo not given) |
| 241 to 243 | CC1CCc2cccc3c2N1C(=O)C3=O (stereo not given) |
| 84 to 86 | Cc1ncoc1C(=O)c1ccccc1 |
| 284 to 286 | COc1cccc(-c2cc3cnc(N)nc3nc2N)c1 |
| 91 to 93 | COCCCNS(=O)(=O)NC(=O)OCc1ccccc1 |
| 147 to 149 | O=C(c1ccc([N+](=O)[O-])cc1)N1Cc2ccccc2Sc2ccccc21 |

Further lines, the compound ahead of its results:

| Compound | melting point [°C] |
| --- | --- |
| COc1cc2c(cc1OC)CCCC(C(=O)N1CCN(C(=O)c3cc(OC)c(OC)c(OC)c3)C(C(=O)N(C)C)C1)=C2 (stereo not given) | 177 to 178 |
| Cc1nc2cc(C(=O)NC(C)C)c(NC(=O)c3cc(C(F)(F)F)nn3-c3ncccc3Cl)c(Cl)c2nc1C | 243 to 244 |
| COc1cc(CCCCCC2OC(=O)NC2=O)ccc1OCc1nc(-c2ccccc2)oc1C (stereo not given) | 114 to 115 |
| CN1C(=O)CN=C(c2ccccc2F)c2cc(NC(=O)NCCCl)ccc21 | 240 |
| Fc1ccc([C@H]2CC[C@H](N3CCC(Cc4cc(F)ccc4F)CC3)CC2)cc1 | 80 to 81 |
| CC(=O)N1c2ccc(-c3ccc(C(=O)O)cc3)cc2[C@H](Nc2ccc(Cl)cc2)C[C@@H]1C | 275 |
| CNC(=O)CC(O)(c1ccccc1)c1ccc2nc(N)n(S(=O)(=O)C(C)C)c2c1 (stereo not given) | 92 to 95 |
| CC(C)(C)CC(=O)N[C@H]1CC[C@H](CCN2CCN(c3nccc4c3CCO4)CC2)CC1 | 192 |
| CN(C(=O)c1cn2ccc(-c3ccc(Cl)cc3)cc2n1)C(Cc1ccc(OCc2ccccc2)cc1)C(=O)O (stereo not given) | 222 |
| CCOC(=O)C(=O)Nc1ccc(NC(=O)C(=O)OCC)cc1 | 214 to 217 |
| Cc1cc(C(=O)CCCC(=O)c2cc(C)c(O)c(C(C)(C)C)c2)cc(C(C)(C)C)c1O | 156 to 158 |
| Cn1cnc(COc2nc3c(cc2-c2cccc(F)c2)nnn3-c2ccccc2F)n1 | 202 to 205 |
| O=C1c2ccc(Cl)cc2C(=O)N1CC(=O)N1c2ccccc2N(Cc2ccccc2)C(=O)[C@H]2CCC[C@H]21 (relative stereo) | 237 to 238 |
| ClCc1nc2sc3c(c2c(-c2ccc(Cl)cc2)c1Cl)CCN(Cc1ccccc1)C3 | 204 to 205 |
| OCC(CO)OCc1ccccc1 | 38 to 39 |
| O=C(O)C1CCC(O)CC1 (stereo not given) | 110 to 130 |
| Oc1c2c(nn1-c1ccc(C(F)(F)F)cn1)CCc1ccccc1-2 | 158 to 159 |
| CC(CC(C(=O)N(C)C)(c1ccccc1)c1ccccc1)N1CCC(NC(=O)c2cccc(C(F)(F)F)c2)C(O)C1 (stereo not given) | 141 |
| CCCCCCCCCCCCCCCc1cc2cc(C(=O)OCC)ccc2[nH]1 | 89 to 91 |
| O=C=Nc1c(Cl)c(Cl)cc(Cl)c1Cl | 62.5 to 63.5 |

| Compound | melting point [°C] |
| --- | --- |
| CC(=O)Nc1c(I)c(NC(C)=O)c(I)c(C(=O)OCC(O)CO)c1I (stereo not given) | 207 |
| Nc1nc(NCCC2CCCCC2)nc2c1ncn2C1OC(CO)C(O)C1O (stereo not given) | 142 to 145 |
| O=C(O)c1ccc(SCc2c(O[C@H](Cn3ccnc3)c3ccccc3)ccc3c2CCCC3=O)cc1 | 215 |
| CCCCOC(=O)C(=O)Nc1cc(C#N)cc(NC(=O)C(=O)OCCCC)c1Cl | 118 to 120 |
| O=[N+]([O-])c1cc2nc(O)c(O)nc2c2nonc12 | > 300 |
| CCCCCNC(=O)Nc1ccccc1C(=O)NCCC1CCN(C(c2ccccc2)c2ccccc2)CC1 | 124 to 127 |
| C=CCc1ccc2oc(C=CC(=O)OCC)c(C)c2c1O | 125 to 127 |
| CCC(C)OC(=O)C(C(=O)O)=C1SCS1 (stereo not given) | 80 to 82 |
| Cc1ccc(S(=O)(=O)OC(c2cccc(C(OS(=O)(=O)c3ccc(C)cc3)(C(F)(F)F)C(F)(F)F)c2)(C(F)(F)F)C(F)(F)F)cc1 | 131 |
| Cn1nc2c(N)nc3c(c2c1CCCCNC(=O)N1CCOCC1)CCCC3 | 95 |
| CC1=NN=C(c2ccc3ccccc3n2)c2cc3oc(=O)[nH]c3cc2C1 | 304 to 306 |
| CC(=O)Nc1ccccc1Nc1ccc(C(=O)c2ccccc2)cc1 | 155 to 157 |
| CNC1([C@@H]2CCN(c3c(F)cc4c(=O)c(C(=O)O)cn([C@@H]5C[C@@H]5F)c4c3C)C2)CC1 | 211 to 212 |
| CN1CCC[C@H]1c1cnc(Cl)cc1C(O)c1cc(Cl)ncc1[C@@H]1CCCN1C | 80 to 82 |
| O=C(NCc1ccc(F)cc1)c1ccnc(N2CCN(Cc3ccncc3)C2=O)c1 | 161 to 163 |
| CNC(=O)CCc1cn(Cc2ccc(C(=O)NS(=O)(=O)c3ccccc3C)cc2OC)c2cc(C(=O)NCC3CCCC3)ccc12 | 211 to 212 |
| OC[C@@H]1Cc2cc3ccccc3n2C[C@H]1CO (relative stereo) | 162 to 163 |
| CN(C)C(=O)COc1ccc2c(c1)C[C@@H](NC(=O)OCc1ccccc1)CC2 | 117 to 118 |
| O=C(c1cccs1)c1cnn2c(-c3cccc(-c4nnn(CCN5CCCCC5)n4)c3)ccnc12 | 117 |
| Cc1cc(Nc2ccnc(Nc3ccc(S(=O)(=O)N(C)C4CCN(Cc5cccn5C)CC4)cc3)n2)ccc1F | 159 to 160 |

| Compound | melting point [°C] |
| --- | --- |
| COC(=O)c1ccc(OC(=O)c2cc(C)c3c(c2C)C2(CCS3(=O)=O)OCCO2)cc1 | 206 to 208 |
| COC(=O)c1cc(OC)c2c(c1)OCO2 | 91 |
| O=C(c1ccc(F)cc1)N1CCC[C@H](c2nc(-c3cscn3)no2)C1 | 118 to 120 |
| Cc1c(NC(=O)c2ccc(-c3ccc(F)cc3)nc2)ccc2cc(CN3CCCC3)cnc12 | 207 to 209 |
| Fc1cc(Cl)c2nc(Cl)sc2c1-n1nc2c(c1Cl)CCCC2 | 161 to 163 |
| COC(=O)c1cc(C(=O)c2c(C)c(NC(=O)c3cccc(O)c3)c3ccccn23)ccc1N | 278 |
| NC(=O)[C@H](NCc1ccccc1)[C@@H]1CSC(=O)N1Cc1ccccc1 | 194 to 195 |
| C=C(C)C(=O)N1CCC[C@H]1C(=O)O | 102 to 104 |
| CC1(C)CCC(C)(C)c2cc(-c3cc(-c4ccc(C(=O)O)cn4)ccc3-c3ccccc3)ccc21 | 105 to 107 |
| COc1ccc(CN2C(=O)C(C)(c3ccccc3Cl)c3cc(OC)ccc32)c(OC)c1 (stereo not given) | 133 |
| CCCCOc1cc(/C=C(\OCC)C(=O)O)ccc1OCCc1ccc(OS(=O)(=O)CCCC)c(Cl)c1 | 80 |
| CCCc1cc(-c2nc3c(s2)CCCO3)ccc1O | 152 to 154 |
| C=CCn1c(NC=O)nc(N2CCc3ccccc3CC2)c(C#N)c1=O | > 200 |
| COC(=O)N1Cc2c(O)noc2C(C)C1 (racemic) | 128 to 129 |
| CCOC(=O)c1c(Cl)nc2cc3c(cc2c1CCl)OCCO3 | > 260 |
| CC(=O)SCCC(=O)N1C(C(=O)O)CC2CCCCC21 (stereo not given) | 131 to 133 |
| O=C(CNC(=O)c1ccc(S(=O)(=O)F)cc1)Nc1cccc(-c2cccc3c2/C(=C/c2ccc[nH]2)C(=O)N3)c1 | 248 to 250 |
| O=C(O)[C@H](Cc1ccc(OCc2ccccc2)cc1)NS(=O)(=O)c1ccc(F)cc1 | 138 to 139 |
| Cc1cc(C)n(Cc2ccc3c(c2)Cc2c(-c4ccsc4)n[nH]c2-3)n1 | 257 to 260 |
| COC(C(N)=O)C(=O)O (stereo not given) | 128 to 130 |
